From patent US20100152303A1, “AGENTS AND METHOD FOR […] […]” (priority 2000, published 2010)

Legend:
[1] = cited from earlier work
[2] = system: ERP57; test: Effect of methoxychlor on ERP57 concentration in rat livers (immunoelectrophoresis of liver microsomes); assay type: in vivo; conditions: male CD rats, gavage in corn oil, 14 days, dosages 10, 50, and 100 mg/kg/day
Description: The purpose of this experiment was to determine the effect of administering varying levels of methoxychlor for 14 days on the levels of the microsomal protein ERP57 in mammalian tissues.
Methoxychlor, potassium chloride, and Tris were purchased from Sigma Chemicals (St. Louis, Mo.). The BCA (Bicinchoninic Acid) Assay kits were purchased from Pierce Chemical Company (Rockford, Ill.). Agarose was purchased from Boehringer Mannheim (Indianapolis, Ind.). Polyclonal antibodies to the ERP57 were developed in laying hens as previously described (Srivastava et al. 1991, J. Biol. Chem. 266: 20337-20344; Chen et al. 1996, Biochemistry 25: 8299-8306).
The animals used in these studies were 150-200 g fed, male, CD rats from Harlan Laboratories. […] The microsomal suspensions were aliquoted and stored at −80° C. until analyzed.
The concentrations of total microsomal protein were then determined via the BCA assay. […]
The concentration of ERP57 in the samples was determined with immunoelectrophoresis. […]
The indicator dye was a combination of nitroblue tetrazolium and 5-bromo-4-chloro-3-indoyl phosphate from Bio Rad (Richmond, Calif.). […] The densities of the stained bands were determined on a flat bed scanner from UMAX (Taiwan, China). The scans were analyzed using NIH Image (version 1.54) on a PowerPC (Apple Computer). The blank for each band was determined from the adjacent, unreacted area in the lane.

Question: For `COc1ccc(C(c2ccc(OC)cc2)C(Cl)(Cl)Cl)cc1` [methoxychlor, 1,1,1-trichloro-2,2-bis-(4-methoxyphenyl)ethane], which “rat oral LD50” value [1] is on record?
Answer: > 6000 mg/kg

Question: What about the “relative concentration of ERP57 in the rat liver, normalized by total microsomal protein” value [2] of the same compound?
Answer: significant increase
